What was measured:
Palmer amaranth = assay: Post-emergence application in Palmer amaranth under greenhouse conditions (Example 7); assay type: in vivo; details: 24 days after application
Source text: (§1) The following testing protocol was employed to evaluate the post-emergence application of herbicides and herbicide combinations as described in the following examples unless otherwise specified. The weed species to be treated were planted in 3.5 inch pots containing redi-earth potting mix and grown under greenhouse conditions. When the weed species reached a height of about four inches, herbicide was applied at the specified application rate using a track sprayer with a flat even nozzle type, 9501E nozzle size, and spray pressure of 165 kPa. After the application of the herbicide(s), the pots were only sub-irrigated as needed. Throughout the test period, temperature was maintained from about 20° C. to about 30° C. and relative humidity was maintained at about 30%. The plants were rated visually and percentage of weed control was determined for each treatment at 15 to 21 days after herbicide application.
Post-emergence application of several herbicides and herbicide combinations was evaluated in Palmer amaranth under greenhouse conditions. The plants were rated visually and percentage of weed control was determined at 24 days after herbicide application. The herbicides and herbicide combinations evaluated are listed in Table 7-A below together with the corresponding percent control data. The data represent an average value (n=6).
The results of the analysis are reported below in Table 7-B (glyphosate+dicamba), Table 7-C(glyphosate+metribuzin), and Table 7-D (dicamba+metribuzin).

velvetleaf = assay: Post-emergence application in velvetleaf under greenhouse conditions (Example 8); assay type: in vivo; details: velvetleaf, 24 days
Source text: as §1
Post-emergence application of several herbicides and herbicide combinations was evaluated in velvetleaf under greenhouse conditions. The plants were rated visually and percentage of weed control was determined at 24 days after herbicide application. The herbicides and herbicide combinations evaluated are listed in Table 8-A below together with the corresponding percent control data. The data represent an average value (n=6).
The results of the analysis are reported below in Table 8-B (glyphosate+dicamba), Table 8-C(glyphosate+metribuzin), and Table 8-D (dicamba+metribuzin).

soybeans = assay: Field screening for metribuzin tolerance in soybeans (Example 11, 13); assay type: in vivo, Glycine max; details: soybean lines containing a heterozygous (CT) allele of NGMAX006079502
Description: Field screening for metribuzin tolerance in soybeans was performed at the Monsanto Company Soybean Research Station near Mount Olive, N.C. in 2010 and 2011. Metribuzin application rate was 0.5 lbs/acre metribuzin (Sencor®, Bayer Crop Science, Research Triangle Park, N.C., U.S.A.) one day prior to planting. Rows were planted as single six foot row plots with 9 seed per foot. Multiple repetitions were grown per row. Within 24 hours after planting, the trial was irrigated with 0.5 inches of water to help incorporate and activate the herbicide. Injury ratings were taken fourteen to twenty one (14 to 21) days after planting using a 1 to 9 scale (for example, 1=no damage, 9=completely killed). After identifying the target region through the mapping population described in Example 12, a molecular marker was identified. An association study was done using a soybean molecular marker database. Over 200 commercial and breeding lines were characterized for metribuzin tolerance in field and greenhouse screening, as described in Example 11.

## CSc1nnc(C(C)(C)C)c(=O)n1N [Metribuzin, 4-amino-6-(1,1-dimethylethyl)-3-(methylthio)-1,2,4-triazin-5(4H)-one]
Palmer amaranth; 420 g/ha
  PERCENT CONTROL: 20.0%
Palmer amaranth; 840 g/ha
  PERCENT CONTROL: 26.0%
velvetleaf; Table 8-C, dose 420 g/ha
  PERCENT CONTROL (ACTUAL): 22.0%
velvetleaf; Table 8-C, dose 840 g/ha
  PERCENT CONTROL (ACTUAL): 68.0%
velvetleaf; Table 8-D, dose 420 g/ha
  PERCENT CONTROL (ACTUAL): 22.0%
velvetleaf; Table 8-D, dose 840 g/ha
  PERCENT CONTROL (ACTUAL): 68.0%
soybeans
  metribuzin phenotype in the field: mixed phenotype of both tolerance and sensitivity

Reference: US20150313228A1, “SYNERGISTIC HERBICIDAL COMBINATIONS AND METHODS OF USE” (priority 2012, published 2015)
